Laboratory results: patent publication US10933063B2 (priority 2017, dated 2021)

target: BTK (Homo sapiens (Human), UniProt Q06187); assay: biochemical
Sequence (Q06187 whole entry, looked up, species assumed): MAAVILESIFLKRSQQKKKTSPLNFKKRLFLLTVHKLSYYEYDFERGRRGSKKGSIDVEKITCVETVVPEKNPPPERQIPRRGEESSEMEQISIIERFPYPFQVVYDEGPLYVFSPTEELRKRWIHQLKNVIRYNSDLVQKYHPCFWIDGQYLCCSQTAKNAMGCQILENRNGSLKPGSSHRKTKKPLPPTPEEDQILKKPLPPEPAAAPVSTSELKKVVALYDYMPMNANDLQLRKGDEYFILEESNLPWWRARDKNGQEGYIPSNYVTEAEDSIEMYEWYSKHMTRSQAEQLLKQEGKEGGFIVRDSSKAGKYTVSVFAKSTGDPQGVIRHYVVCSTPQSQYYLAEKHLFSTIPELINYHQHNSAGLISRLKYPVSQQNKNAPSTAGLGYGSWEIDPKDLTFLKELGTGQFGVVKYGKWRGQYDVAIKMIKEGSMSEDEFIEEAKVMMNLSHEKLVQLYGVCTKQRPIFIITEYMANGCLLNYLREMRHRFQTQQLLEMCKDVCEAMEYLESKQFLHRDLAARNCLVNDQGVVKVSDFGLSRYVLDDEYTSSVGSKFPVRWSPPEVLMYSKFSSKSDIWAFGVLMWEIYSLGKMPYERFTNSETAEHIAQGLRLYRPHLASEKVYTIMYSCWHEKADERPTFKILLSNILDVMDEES

Compound	IC50 [µM]
C=CC(=O)N1CCC[C@H]1c1nc(-c2ccc(OCc3cccc(F)c3F)cc2)c2cnccn12 [Example 124, (S)-1-(2-(1-(4-((2,3-Difluorobenzyl)oxy)phenyl)imidazo[1,5-a]pyrazin-3-yl)pyrrolidin-1-yl)prop-2-en-1-one]	0.01 to 0.1
CC#CC(=O)N1CCCC[C@H]1c1nc(-c2ccc(Oc3cccc(C)c3)cc2)c2c(C)nccn12 [Example 41, (S)-1-(2-(8-methyl-1-(4-(m-tolyloxy)phenyl)imidazo[1,5-a]pyrazin-3-yl)piperidin-1-yl)but-2-yn-1-one]	0.01 to 0.1
CC#CC(=O)N1CCCC[C@H]1c1nc(-c2ccc(COc3cccc(F)c3F)cc2)c2cnccn12 [Example 159, (S)-1-(2-(1-(4-((2,3-difluorophenoxy)methyl)phenyl)imidazo[1,5-a]pyrazin-3-yl)piperidin-1-yl)but-2-yn-1-one]	1 to 10
CC#CC(=O)N1CC[C@@H](c2nc(-c3ccc(Oc4cccc(OC)c4F)cc3)c3c(CO)nccn23)C1 [Example 119, (R)-1-(3-(1-(4-(2-fluoro-3-methoxyphenoxy)phenyl)-8-(hydroxymethyl)imidazo[1,5-a]pyrazin-3-yl)pyrrolidin-1-yl)but-2-yn-1-one]	0.01 to 0.1
CC#CN1CCC[C@H]1c1nc(-c2ccc(C(=O)Nc3cc(C(F)(F)F)ccn3)cc2)c2c(CO)nccn12 [Example 210, (S)-4-(8-(hydroxymethyl)-3-(1-(prop-1-yn-1-yl)pyrrolidin-2-yl)imidazo [1,5-a]pyrazin-1-yl)-N-(4-(trifluoromethyl)pyridin-2-yl)benzamide]	0.1 to 1
C=CC(=O)N1CCCC[C@H]1c1nc(-c2ccc(Oc3cccc(F)c3)cc2)c2cnccn12 [Example 45, (S)-1-(2-(1-(4-(3-fluorophenoxy)phenyl)imidazo[1,5-a]pyrazin-3-yl)piperidin-1-yl)prop-2-en-1-one]	0.01 to 0.1
C=CC(=O)N1CC[C@@H](c2nc(-c3ccc(Oc4cccc(OC)c4F)cc3)c3c(CCC)nccn23)C1 [Example 109, (R)-1-(3-(1-(4-(2-fluoro-3-methoxyphenoxy)phenyl)-8-propylimidazo[1,5-a]pyrazin-3-yl)pyrrolidin-1-yl)prop-2-en-1-one]	0.1 to 1
COc1cccc(Oc2ccc(-c3nc([C@@H]4CCCN(C(=O)C(N)=O)C4)n4ccncc34)cc2)c1F [Example 3, (R)-2-(3-(1-(4-(2-fluoro-3-methoxyphenoxy)phenyl)imidazo[1,5-a]pyrazin-3-yl)piperidin-1-yl)-2-oxoacetamide]	1 to 10
CC#CC(=O)N1CCCC[C@H]1c1nc(-c2ccc(Oc3cccc(F)c3F)cc2)c2c(C)nccn12 [Example 60, (S)-1-(2-(1-(4-(2,3-difluorophenoxy)phenyl)-8-methylimidazo[1,5-a]pyrazin-3-yl)piperidin-1-yl)but-2-yn-1-one]	0.01 to 0.1
CC#CC(=O)N1CCC[C@H]1c1nc(-c2ccc(C(=O)Nc3ccccn3)cc2)c2cnccn12 [Example 166, (S)-4-(3-(1-(but-2-ynoyl)pyrrolidin-2-yl)imidazo[1,5-a]pyrazin-1-yl)-N-(pyridin-2-yl) benzamide]	1 to 10
COc1cccc(Oc2ccc(-c3nc([C@@H]4CCCN(C(=O)/C(C#N)=C/C(C)(C)C)C4)n4ccncc34)cc2)c1F [Example 2, (R,E)-2-(3-(1-(4-(2-Fluoro-3-methoxyphenoxy)phenyl)imidazo[1,5-a]pyrazin-3-yl)piperidine-1-carbonyl)-4,4-dimethylpent-2-enenitrile]	0.01 to 0.1
CC#CC(=O)N1CCC[C@H]1c1nc(-c2ccc(Oc3cccc(OC)c3F)cc2)c2cncc(C)n12 [Example 63, (S)-1-(2-(1-(4-(2-fluoro-3-methoxyphenoxy)phenyl)-5-methylimidazo[1,5-a]pyrazin-3-yl)pyrrolidin-1-yl)but-2-yn-1-one]	0.1 to 1
CC#CC(=O)N1CCC[C@H]1c1nc(-c2ccc(OCc3cccc(Cl)c3)cc2)c2cnccn12 [Example 142, (S)-1-(2-(1-(4-((3-chlorobenzyl)oxy)phenyl)imidazo[1,5-a]pyrazin-3-yl)pyrrolidin-1-yl)but-2-yn-1-one]	1 to 10
CC#CC(=O)N1CCCC[C@H]1c1nc(-c2ccc(C(=O)Nc3ccccn3)cc2)c2c(C)ncc(C)n12 [Example 189, (S)-4-(3-(1-(but-2-ynoyl)piperidin-2-yl)-5,8-dimethylimidazo[1,5-a]pyrazin-1-yl)-N-(pyridin-2-yl)benzamide]	0.1 to 1
CC#CC(=O)N1CC[C@@H](c2nc(-c3ccc(Oc4cccc(OC)c4F)cc3)c3cncc(OCCOC)n23)C1 [Example 103, (R)-1-(3-(1-(4-(2-fluoro-3-methoxyphenoxy)phenyl)-5-(2-methoxyethoxy)imidazo[1,5-a]pyrazin-3-yl)pyrrolidin-1-yl)but-2-yn-1-one]	0.01 to 0.1
CC#CC(=O)N1CCCC[C@H]1c1nc(-c2ccc(COc3ccc(F)c(F)c3)cc2)c2cnccn12 [Example 149, (S)-1-(2-(1-(4-((3,4-difluorophenoxy)methyl)phenyl)imidazo[1,5-a]pyrazin-3-yl)piperidin-1-yl)but-2-yn-1-one]	1 to 10
C=CC(=O)N1CCC[C@H]1c1nc(-c2ccc(Oc3cccc(C)c3C)cc2)c2cnccn12 [Example 12, (S)-1-(2-(1-(4-(2,3-dimethylphenoxy)phenyl)imidazo[1,5-a]pyrazin-3-yl)pyrrolidin-1-yl)prop-2-en-1-one]	0.01 to 0.1
CC#CC(=O)N1CCCC[C@H]1c1nc(-c2ccc(Oc3cccc(F)c3)cc2)c2c(C)nccn12 [Example 56, (S)-1-(2-(1-(4-(3-fluorophenoxy)phenyl)-8-methylimidazo[1,5-a]pyrazin-3-yl)piperidin-1-yl)but-2-yn-1-one]	0.01 to 0.1
C=CC(=O)N1CC[C@@H](c2nc(-c3ccc(C(=O)Nc4ccccn4)cc3)c3cnccn23)C1 [Example 176, (R)-4-(3-(1-acryloylpyrrolidin-3-yl)imidazo[1,5-a]pyrazin-1-yl)-N-(pyridin-2-yl)benzamide]	0.01 to 0.1
C=CC(=O)N1CCCC[C@H]1c1nc(-c2ccc(COc3cccc(F)c3)cc2)c2c(C)nccn12 [Example 156, (S)-1-(2-(1-(4-((3-fluorophenoxy)methyl)phenyl)-8-methylimidazo[1,5-a]pyrazin-3-yl)piperidin-1-yl)prop-2-en-1-one]	0.01 to 0.1
C=CC(=O)N1CCCC[C@H]1c1nc(-c2ccc(Oc3cccc(OC)c3F)cc2)c2c(C(=O)OC)nccn12 [Example 66, methyl (S)-3-(1-acryloylpiperidin-2-yl)-1-(4-(2-fluoro-3-methoxyphenoxy)phenyl)imidazo[1,5-a]pyrazine-8-carboxylate]	1 to 10
C=CC(=O)N1CCC[C@H]1c1nc(-c2ccc(Oc3cccc(OC)c3F)cc2)c2cnc(C)cn12 [Example 83, (S)-1-(2-(1-(4-(2-fluoro-3-methoxyphenoxy)phenyl)-6-methylimidazo[1,5-a]pyrazin-3-yl)pyrrolidin-1-yl)prop-2-en-1-one]	0.01 to 0.1
CC#CC(=O)N1CCC[C@H]1c1nc(-c2ccc(C(=O)Nc3ccccn3)cc2)c2c(CO)nccn12 [Example 207, (S)-4-(3-(1-(but-2-ynoyl)pyrrolidin-2-yl)-8-(hydroxymethyl)imidazo [1,5-a]pyrazin-1-yl)-N-(pyridin-2-yl)benzamide]	0.1 to 1
CC#CC(=O)N1CCC[C@H]1c1nc(-c2ccc(Oc3cccc(OC(C)C)c3)cc2)c2cnccn12 [Example 39, (S)-1-(2-(1-(4-(3-isopropoxyphenoxy)phenyl)imidazo[1,5-a]pyrazin-3-yl)pyrrolidin-1-yl)but-2-yn-1-one]	0.1 to 1
